This note sets out measurements from patent US20260034091A1, “Compositions and Methods for Treating Metabolic Disorders” (The Regents of the University of California, priority 2022, published 2026).

The assay concerns CDAHFD induced late stage NAFLD/NASH in mice. Briefly: In-depth investigation of rescue effect of TOFA in CDAHFD induced late stage NAFLD/NASH. It counts as in vivo, C57BL/6J male mice. The following applies: four weeks. As for the experimental part:
Six-week-old C57BL/6J male mice were fed with a L-amino acid diet with 60 kcal % fat with 0.1% methionine and no added choline (CDAHFD; Research Diets A06071302i) for eight weeks. Ten subjects were randomly assigned to either a vehicle (control) treatment or a 125 mg/kg. BID, of TOFA treatment delivered by oral gavage for an additional four weeks. Mice weights were monitored during the entire treatment time course. Upon study termination at 12 weeks, serum and liver samples were collected. Serum liver damage biomarkers, ALT and AST, were measured by commercially available kits (abcam 105134 and abcam 105135, respectively). Hepatic and serum triglyceride levels were measured from a commercially available kit (abcam65336). Total RNA was extracted from liver tissues (Qiagen RNeasy kit 74106), and cDNA was prepared (BioRAD iScript™ Reverse Transcription) according to manufacturer's protocols. Quantitative PCR (qPCR) was performed with fast SYBR Green Mix (ThermoFisher A25742) on the QuantStudio6 System (Applied Biosciences).

Structures are written as SMILES.

As for `CCCCCCCCCCCCCCOc1ccc(C(=O)O)o1` [TOFA, 5-(Tetradecyloxy)-2-furoic acid], under “125 mg/kg BID oral gavage”, the “hepatic hydrogen peroxide levels” value is listed as “decrease”, the liver triglyceride levels entry is recorded as “significant decrease”, the “serum ALT” value was “trending decreases” and the “serum AST” value is “trending decreases”. Under “125 mg/kg BID oral gavage, vs vehicle”, the body weight entry is on record as “significant decrease”. Besides, for the setting “liver mRNA, 125 mg/kg BID”, the “expression of genes involved in collagen biosynthesis by qPCR” value is listed as “decreased”; the “expression of inflammation genes (Il1b, Tnfa) by RT-qPCR” value is given as “decrease in expression”; the “genes with PPAR regulatory elements (beta-oxidation, lipogenesis) by RT-qPCR” value is on record as “upregulated”.
